How the values were obtained:
[1] = system: special operations veterans; assay: Predicted brain age from MRI (brain age model); assay type: in vivo, human
Excerpt: A predictive model of normal aging defined using machine learning in healthy individuals, based on magnetic resonance imaging-derived estimates of gray matter and white matter (Id.) was applied to the MRI images from the subjects enrolled in the study of Example 1. […] There was a significant reversal of brain age from baseline to one month after treatment. The mean decrease in brain age was 1.3 years (corrected p=0.03).
At baseline, the brain age estimate for the 24 subjects was 40.89 years. […] The average decrease in brain age from baseline one month after treatment was 1.4 years.

[2] = system: special operations veterans; assay: Wechsler Adult Intelligence Scale (WAIS-IV) PSI and WMI, Example 1 study; assay type: in vivo, human
[3] = system: special operations veterans; assay: Hopkins Verbal Learning Test-Revised (HVLT-R), Example 1 study; assay type: in vivo, human
[4] = system: N-methyl-D-aspartate, kappa and mu opioid, sigma-1 and -2, nicotinic acetylcholine, serotonin transporter, and dopamine transporter; conditions: cited from earlier work
[5] = system: special operations veterans; assay: Resting-state fMRI functional connectivity (Example 2); assay type: in vivo, human; conditions: within a few days after treatment; persisted to one-month post treatment; 5000 pairs tested
Excerpt: The human brain is a series of well-organized and optimized series of efficient networks. Disease states can be characterized as abnormalities or inefficiencies in the networks and/or the global organization. Resting-state functional connectivity is one method to characterize disease states and effects of interventions. The functional connectivity networks evaluated in a region of interest in the brain included those identified in Table 2-1 of Example 2.
The subjects were asked to clear their mind of any particular thoughts in order to capture the brain at rest or in its ‘default’ state. An a priori region of interest was determined for analysis and 5000 functional connectivity pairs were tested. The underlying alteration in brain patterns (connectivity) due to an intervention was evaluated.

[6] = system: BDNF and GDNF; conditions: cited from earlier work
[7] = system: special operations veterans; assay: Lag projection analysis of BOLD fMRI; assay type: in vivo, human; conditions: baseline vs about four days post treatment; left orbitofrontal gyrus (lateral and anterior) and inferior frontal gyrus (orbital and triangular); fwec p<0.001
Protocol: fMRI data was also analyzed to inspect activity patterns as a function of time. A lag projection analysis measures temporal dynamics of blood oxygen level-dependent (BOLD) fMRI (Mitra et al., PNAS, E2235-E2244, 2015). Directed flow transfer of information is analyzed by comparing lag-correlation shift between voxel pairs. The average lag structure of a voxel indicates relative earliness or lateness in the brain, as a measure of whether the region is a source or sink of information. A paired T-test of fMRI images at baseline and about four days post treatment was done. […] These regions are involved in language formation, response inhibition and regulating goal-directed behavior. Slowing may reflect sustained processing and influence over the brain across long time scales.

[8] = system: male veterans with a history of TBI; assay: Pseudo-continuous arterial spin labeling MRI, cerebral blood flow (Example 3); assay type: in vivo, human; conditions: paired t-test across baseline, first post-treatment scan and 1 month post-treatment; p<0.001
Protocol: Arterial spin labeling (ASL) MR was used to measure cerebral blood flow in some of the subjects of the subjects enrolled in the study of Example 1. As described in Example 3, pseudo-continuous ASL (pcASL) was performed on the subject at baseline, about 1 week after treatment, and one-month after treatment. […] A first metric of interest was change in net quantity (mL/100 g tissue/min) of blood entering different regions of the brain. Images of the left posterior orbital gyrus, left anterior insula, left and right cerebral white matter at baseline and 1-week post treatment (images not shown) were analyzed and compared. […] A paired t-test across 3 time points—baseline (pre-treatment), 1 week post-treatment, and 1 month post-treatment—was employed.
A second metric of interest was regression between change in clinical scores versus change in relative cerebral blood perfusion from baseline to one-month post treatment. Multiple regression with clinical scores at baseline and one-month post treatment was used. […]
A first metric of interest was change in net quantity (mL/100 g tissue/min) of blood entering different regions of the brain. Images of the left posterior orbital gyrus, left anterior insula, left and right cerebral white matter at baseline and 1-2 days post treatment (images not shown) were analyzed and compared. […]

[9] = system: humans; conditions: in vivo; cited from earlier work
[10] = system: special operations veterans; assay: MADRS depression rating scale, Example 1 study; assay type: in vivo, human; conditions: for MADRS score, mean: p(FDR) <0.001
Protocol: With subjects in the fasting state, an intravenous infusion of 1 gram of magnesium sulfate was administered 1-2 hours prior to treatment. […] Medical staff (MD, RN, or EMT) were onsite at a ratio of at least 1 staff per 2 patients throughout treatment for monitoring and management, but no specific coaching or psychological support was provided during treatment.
Post treatment, each subject was assessed four days after treatment, one month after treatment, and, if willing, one year after treatment. The post-treatment assessments conducted at four days and at one month after treatment included neuropsychological testing, measures of PTSD, depression, anxiety, mystical experiences, functional imaging and EEG. Post-treatment assessments conducted at one year after treatment included PTSD, depression, and anxiety measures.
Clinician administered scales included CAPS-5 (Clinician-administered PTSD Scale for DSM-5), which is a gold standard assessment of PTSD symptom severity; MADRS (Montgomery-Asberg Depression Rating Scale), a measure for depressive symptom severity; and Hamilton-Anxiety Rating Scale (HAM-A) (Shear, M. K. et al., Depress. Anxiety 13, 166-178 (2001)) a measure for anxiety symptom severity; SCID-5 (Structured Clinical Interview for DSM-5) Overview for a historical and environmental context of symptom presentation; MINI DSM-5 (Mini International Neuropsychiatric Interview from DSM-5) for a structured psychodiagnostics assessment; BAT-L (Boston Assessment of TBI—Lifetime) for a lifetime history of TBI and blast exposure; and Ohio State University TBI Identification Method (Short Form) for a lifetime history of TBI. MADRS testing provides an indication of depressive symptoms, CAPS-5 provides an indication of PTSD and SIGH-A provides an indication of anxiety. Collectively these overlap to provide indication of mood, concentration, sleep and tension.
The MADRS is a clinician—administered 10-item scale assessing the severity of depression symptoms. Items are rated on a scale of 0 (no abnormality) to 6 (severe) (Montgomery, S. A. et al., Br. J. Psychiatry J. Ment. Sci. 134, 382-389 (1979)). A total score of 0-6 indicates no depression, 7-19 mild depression, 20-34 moderate depression, 35-59 severe depression, […] (Miller, M. J., J. Affect. Disord. 77, 255-260 (2003)).

CCC1CC2CC3c4[nH]c5ccc(OC)cc5c4CCN(C2)C13 (stereo not shown) [ibogaine, Ibogaine]
Mean decrease in brain age ([1]; baseline to one month after treatment, corrected p=0.03 (FIG. 9A)): 1.3 years | Estimated brain age compared to accelerated intermittent theta burst stimulation (aiTBS) ([1]; one-month post treatment (FIG. 9D)): provided a reducing in estimated brain age one-month post treatment compared to aiTBS | Brain age contrast Estimate, Baseline & 1 wk. vs 1 mo. ([1]; weights .5-.5-1, Sig 0.008, 95% 0.352 to 2.087): 1.220 years | Working Memory (WMI, WAIS-IV), mean ± SD ([2]; 1-wk post, baseline 55.1 ± 8.3, p(FDR) 0.034): 57.0 ± 9.5 T score | Working Memory (WMI, WAIS-IV), D ([2]; baseline vs 1-month post): 0.31 | Processing Speed (PSI, WAIS-IV), D ([2]; baseline vs 1-wk post): 0.97 | Working Memory (WMI, WAIS-IV), D ([2]; baseline vs 1-wk post): 0.37 | Verbal Memory (HVLT-R), mean ± SD ([3]; 1-wk post, baseline 47.4 ± 10.1, p(FDR) 0.583): 49.0 ± 9.2 T score | Verbal Memory (HVLT-R), D ([3]; baseline vs 1-month post): 0.47 | Verbal Memory (HVLT-R), D ([3]; baseline vs 1-wk post): 0.17 | Verbal memory improvement ([3]; one-month follow-up): significant improvement | Affinity for neurotransmitter receptors [4]: moderate-to-weak affinity | Reorganization of functional connection pairs in the brain networks, number of pairs [5]: 22 | Transcription of neurotrophic factors including BDNF and GDNF [6]: increases the transcription of neurotrophic factors | Lag structure change (BOLD fMRI) [7]: relative slowing | Change in absolute cerebral blood flow [8]: No significant changes | Incidence of cardiac arrest in people treated [9]: Approximately 1 in 300 people | Neurotoxicity reported in humans [9]: only transient ataxia has been reported in humans | QT interval prolongation [9]: instances of subsequent fatal arrhythmia | MADRS score, mean ([10]; 1-mo. post, SD 5.9, baseline 25.2 ± 8.7, N 28, only participants with mild TBI): 3.6 | MADRS score, mean ([10]; 1-mo. post, SD 7.7, baseline 31.3 ± 6.5, N 15, only participants meeting diagnostic criteria per MINI at baseline): 6.4 | MADRS % Reduction vs Baseline, mean ([10]; 1-mo. post, SD 17%, only participants with mild TBI): 87% ± | MADRS % Reduction vs Baseline, mean ([10]; 1-mo. post, SD 21%, only participants meeting diagnostic criteria per MINI): 81% ± | MADRS score, mean ([10]; 1-wk post, SD 3.6, baseline 31.3 ± 6.5, N 15, only participants meeting diagnostic criteria per MINI at baseline): 3.6 | MADRS score, mean ([10]; 1-wk. post, SD 3.2, baseline 25.2 ± 8.7, N 28, only participants with mild TBI): 2.7 | MADRS % Reduction vs Baseline, mean ([10]; 1-wk. post, SD 11%, only participants meeting diagnostic criteria per MINI): 89% ± | MADRS % Reduction vs Baseline, mean ([10]; 1-wk. post, SD 24%, only participants with mild TBI): 87% ± | MADRS, D ([10]; Baseline vs 1-mo. post, only participants with mild TBI): 2.70

— patent publication US20240100062A1, “Methods of Treatment With an Iboga Alkaloid” (priority 2022, published 2024)
